Where a name gives a salt, the structure may show the parent alone.
Experiments:
[1] = test system: vascular smooth muscle cells; experiment: Cell cycle analysis by FACS (PI staining) of vascular smooth muscle cells; type: cell-based, Sprague-Dawley rat; settings: 5 μM pretreated 2 hours; growth factor and insulin 24 hours; stimulated without drug 8.7%
Protocol: For culturing vascular smooth muscle cells, vascular smooth muscle cells were isolated from the aorta of Sprague-Dawley rat and were first cultured. Vascular smooth muscle cells were cultured in a culturing apparatus having conditions of 37° C., 5% carbon dioxide until cells are grown up in culture medium containing 20% bovine fetal serum. Cells obtained from the procedure were transferred to a fresh culture dish to culture, and the initial cells subcultured up to 4 to 7 times were used in experiments. Vascular smooth muscle cells were analyzed for cell cycle employing FACS in order to confirm the effect of dimethyl fumarate on cell cycle. 5 μM dimethyl fumarate were pretreated for 2 hours in the vascular smooth muscle cells cultured in a medium containing 0.5% bovine fetal serum for 24 hours. Cells were treated with a growth factor and insulin to induce cells into replication phase, and reaction was performed for 24 hours. Then cells were collected and immobilized, and then their nucleuses were stained with propidium iodide (PI), and cell cycle was analyzed by employing FACS. Cell cycle was indicated as % by measuring 10,000 cells per each sample.

[2] = test system: neointima; experiment: Neointima formation after balloon dilation in rats fed high fat diet (H & E staining); type: in vivo, Sprague-Dawley rats; settings: 4 weeks
Protocol: In order to confirm whether dimethyl fumarate inhibits the formation of neointima after balloon dilation, experiments were performed with Sprague-Dawley rats fed with food containing dimethyl fumarate. The rats were bred while maintaining conditions that the temperature of the breeding room was maintained at 22±2° C., and brightness was automatically controlled in 12 hour cycles. Rats were categorized into a normal control group, a negative control group fed with only high fat diet (20% fat, 0.05% cholesterol), and an experiment group fed with food containing 0.5% or 1% dimethyl fumarate together with high fat diet (4 rats per each group), and experiments were progressed while breeding for 4 weeks in separate cages containing one rat per cage. Balloon dilation was performed after breeding rats for 2 weeks before the balloon dilation, and breeding was performed for 2 weeks more while continuing on feeding general diet and dimethyl fumarate diet, and then their aorta were separated and the formation of neointima was confirmed with H & E (hematoxylin and eosin) staining method.

[3] = test system: pRb and CDK; experiment: Western blot of Rb phosphorylation and CDK expression in vascular smooth muscle cells with PDGF; type: cell-based, Sprague-Dawley rat
Protocol: (§1) For culturing vascular smooth muscle cells, vascular smooth muscle cells were isolated from the aorta of Sprague-Dawley rat and were first cultured. Vascular smooth muscle cells were cultured in a culturing apparatus having conditions of 37° C., 5% carbon dioxide until cells are grown up in culture medium containing 20% bovine fetal serum. Cells obtained from the procedure were transferred to a fresh culture dish to culture, and the initial cells subcultured up to 4 to 7 times were used in experiments.
First cultured vascular smooth muscle cells were filled in about 80 to 90% of 60 mm tissue culture dish, and the cells were stood in a medium containing 0.5% FBS for 24 hours to render the cells to be interphase status. The group not treated with dimethyl fumarate was defined as a control, and experimental groups were divided into 3 groups treated with 5 μM dimethyl fumarate for 6, 12 and 24 hours, respectively, with or without PDGF. […] Separated proteins of each sample were quantitatively analyzed, 25 μg of proteins were mixed with sample buffer solution, the mixture was boiled for 5 minutes and then cooled, electrophoresis was performed for the resulting product in sodium dodecyl sulfate polyacrylamide gel to separate depending on size, then the product was transferred to a PVDF membrane, and then reacted with an antibody against pRb or Cyclin. […]

[4] = test system: p53 and p21; experiment: Western blot of p53 and p21 expression in vascular smooth muscle cells; type: cell-based, Sprague-Dawley rat; settings: 5 μM; 1, 2, 3, 6, 12 hours
Protocol: as §1
(§2) First cultured vascular smooth muscle cells were filled in about 80 to 90% of 60 mm tissue culture dish, and the cells were stood in a medium containing 0.5% FBS for 24 hours to render the cells to be interphase status. […]
(§3) Whole proteins were separated from vascular smooth muscle cells of each group by employing RIPA buffer solution (50 mM Tris HCl, 150 mM NaCl, 5 mM EDTA, 1% NP-40, 1 mM PMSF, 1 mM DTT, 1 mg/ml protease inhibitor). Separated proteins of each sample were quantitatively analyzed, 25 μg of proteins were mixed with sample buffer solution, the mixture was boiled for 5 minutes and then cooled, electrophoresis was performed for the resulting product in sodium dodecyl sulfate polyacrylamide gel to separate depending on size, then the product was transferred to a PVDF membrane, and then reacted with p53 or p21 antibody to confirm the expression thereof. […]

[5] = test system: vascular smooth muscle cells; experiment: Inhibition of PDGF-induced vascular smooth muscle cell proliferation (WST cell counting); type: cell-based, Sprague-Dawley rat; settings: 1, 2, 5, 10 μM; PDGF 20 ng/ml; 48 hours; OD 450 nm
Protocol: For culturing vascular smooth muscle cells, vascular smooth muscle cells were isolated from the aorta of Sprague-Dawley rat and were first cultured. Vascular smooth muscle cells were cultured in a culturing apparatus having conditions of 37° C., 5% carbon dioxide until cells are grown up in culture medium containing 20% bovine fetal serum. Cells obtained from the procedure were transferred to a fresh culture dish to culture, and the initial cells subcultured up to 4 to 7 times were used in experiments. First cultured vascular smooth muscle cells were cultured in 96-well culture dish, and when growth reached 70%, they were transferred to a medium containing 0.5% bovine fetal serum, and then cultured for 24 hours and the cells was stood at interphase status. […] The number of viable cells was measured employing WST cell counting kit (WAKO, Japan). A reagent for confirming cell proliferation was treated thereto, reaction was further performed for 4 hours, and then optical density was measured at 450 nm with ELISA reader to investigate the ability of proliferating cells. The results of the experiments were shown by taking an average from values measured in more than three separate experiments.

[6] = test system: AMPK; experiment: Western blot of AMPK and ACC phosphorylation in vascular smooth muscle cells; type: cell-based, Sprague-Dawley rat; settings: 5 μM; 1, 2, 3, 6, 12 hours
Protocol: as §1, §2
as §3, with “Tris-HCl,” for “Tris HCl,”, “[…]” for “μg”, “pAMPK” for “p53”, “pACC” for “p21”, “phosphorylation” for “the expression”

SMILES: COC(=O)/C=C/C(=O)OC [dimethyl fumarate]
- cells in replication phase status [1]: 3.4%
- formation of neointima after balloon dilation ([2]; food containing 0.5% dimethyl fumarate with high fat diet): certainly decreased
- formation of neointima after balloon dilation ([2]; food containing 1% dimethyl fumarate with high fat diet): certainly decreased
- expression of CDK ([3]; 5 μM pretreated 2 hours, then PDGF): more inhibited
- phosphorylation of Rb promoted by a growth factor or CDK ([3]; 5 μM, 6, 12 and 24 hours, with or without PDGF): inhibits
- expression of p21 [4]: increased
- expression of p53 [4]: increased
- cell proliferation increased by platelet derived growth factor [5]: inhibited as the concentration of dimethyl fumarate was increased
- activity (phosphorylation) of AMPK [6]: initially increased
- phosphorylation of ACC [6]: continuously increased
